From article PMC9718554, “Discovery of a fragment hit compound targeting D-Ala:D-Ala ligase of bacterial peptidoglycan biosynthesis” (Journal of Enzyme Inhibition and Medicinal Chemistry, 2022)
Like-named read-outs stand apart in the source and are kept apart here.

Biological target: T1, E. coli DdlB enzyme (D-alanine:D-alanine ligase) (Escherichia coli, UniProt P07862)
T1 construct: made in house; host or cells: E. coli
Experiment: biochemical
Details: for remaining activity at 2000 µM: tested concentration 2.0 mM; for remaining activity at 2100 µM: tested concentration 2.1 mM; for remaining activity at 1800 µM: tested concentration 1.8 mM; for remaining activity at 2600 µM: tested concentration 2.6 mM; for remaining activity at 3300 µM: tested concentration 3.3 mM; for remaining activity at 2400 µM: tested concentration 2.4 mM; for remaining activity at 1900 µM: tested concentration 1.9 mM; for remaining activity at 1700 µM: tested concentration 1.7 mM; for remaining activity at 2300 µM: tested concentration 2.3 mM; for remaining activity at 2800 µM: tested concentration 2.8 mM; for remaining activity at 3200 µM: tested concentration 3.2 mM

[1] = residual activity, read-out: DdlB RA
[2] = residual activity of DdlB, fragment library screening, tested concentration 2.5 mM, read-out: DdlB RA
[3] = tested concentration 2.5 mM, read-out: DdlB RA
[4] = residual activity of DdlB, fragment library screening, read-out: DdlB RA

Compound CCC(=O)N1CCC(CC(=O)N2CCOCC2)C1 (stereo not drawn) [Compound S421-0882] has a remaining activity at 2000 µM (read-out: DdlB RA) of 70%.

O=C(O)c1cc2nccc(-c3ccccc3)n2n1 [Compound D717-0041] was tested, and the remaining activity at 2100 µM [1] was 74%.

CCC(CC)C(=O)Nc1ccc(S(N)(=O)=O)cc1 [Compound Y203-8619] was tested, and the remaining activity at 1800 µM (read-out: DdlB RA) was 81%.

With CCOc1c(N2CCC(C)CC2)c(=O)c1=O [Compound K906-2369] the remaining activity at 2200 µM (tested concentration 2.2 mM, read-out: DdlB RA) was 71%.

With O=S(=O)(O)CCN1CCOCC1 [Compound 0083-0027] the remaining activity at 2600 µM (read-out: DdlB RA) was 91%.

Cc1nc(C(=O)O)cs1 [FLD100] was tested, and the remaining activity at 2500 µM [2] was 93%.

Work on Cc1nnc(N)s1 [FLD150] yielded a remaining activity at 2500 µM [2] of 95%.

Compound Cc1cccc(C)c1NC(=O)C[C@H](NCCO)C(=O)O [Compound 4553-3784] has a remaining activity at 1800 µM (fragment library screening, read-out: DdlB RA) of 102%.

NS(=O)(=O)c1ccc2c(c1)CCN2 [Compound 8018-8673] was tested, and the remaining activity at 2500 µM [3] was 80%.

NS(=O)(=O)c1ccc(Cl)s1 [FLD067] showed a remaining activity at 2500 µM [2] of 100%.

NC(=O)Nc1ccccc1 [FLD016] was tested, and the remaining activity at 2500 µM [2] was 99%.

Compound O=c1[nH]c(O)ncc1S(=O)(=O)NC1CCCCC1 [Compound D668-0013] has a remaining activity at 1800 µM [1] of 99%.

Compound O=c1c(O)c(NCc2ccco2)c1=O [Compound G317-0464] has a remaining activity at 2600 µM (read-out: DdlB RA) of 89%.

For O=c1[nH]c2cc(S(=O)(=O)N3CCCCC3)ccc2o1 [Compound 8013-5568], the remaining activity at 1800 µM (read-out: DdlB RA) was 103%.

With COc1cccc(F)c1B(O)O [Compound 8020-2294] the remaining activity at 2900 µM (read-out: DdlB RA) was 97%.

O=C(O)c1cnn2c(-c3cccs3)ccnc12 [Compound 15, 7-(Thiophen-2-yl)pyrazolo[1,5-a]pyrimidine-3-carboxylic acid] was tested, and the remaining activity at 1000 µM (at 1 mM, read-out: DdlB inhibition, RA (Residual Activity)) was 96%.

CCCc1cc(C(=O)O)n(C)n1 [Compound 8010-6224] showed a remaining activity at 3300 µM [4] of 90%.

CCn1cnnc1CC1CCNC1 (stereo not drawn) [Compound P936-0678] gave a remaining activity at 3300 µM [4] of 90%.

CC(C)N1C(=O)C2(CCCC2)C1C(=O)O (stereo not drawn) [Compound T964-0325] gave a remaining activity at 2400 µM (read-out: DdlB RA) of 92%.

In the case of CCNC(=O)N1CCC(c2noc(-c3ccccc3)n2)C1 (stereo not drawn) [Compound S069-0392], the remaining activity at 1900 µM [1] is reported as 94%.

With Cc1nc(N)nc(C)c1CCC(=O)O [FF01-4599] the remaining activity at 3100 µM (tested concentration 3.1 mM, read-out: DdlB RA) was 91%.

Work on CCn1cnnc1-c1nn(C)c2c1CNCC2 [Compound S565-0571] yielded a remaining activity at 2000 µM (read-out: DdlB RA) of 89%.

Oc1nnc(-c2ccccc2)c(-c2ccccc2)n1 [Compound 3039-0046] showed a remaining activity at 2000 µM [1] of 104%.

With N#Cc1ccc(F)c(F)c1 [FLD163] the remaining activity at 2500 µM [2] was 95%.

Compound CC#CC(=O)N(C)CCc1cn[nH]c1 [Compound T001-1282] has a remaining activity at 2900 µM (tested concentration 2.9 mM, read-out: DdlB RA) of 86%.

With O=C(O)c1cc(S(=O)(=O)N2CCOCC2)ccc1O [Compound 1494-0564] the remaining activity at 1700 µM [1] was 92%.

With O=C(O)c1cc(-c2ccc3c(c2)OCO3)on1 [Compound R314-0020] the remaining activity at 2100 µM [1] was 114%.

Work on O=C(Nc1ccccn1)NC1CCS(=O)(=O)C1 (stereo not drawn) [Compound 7098-0576] yielded a remaining activity at 2400 µM (read-out: DdlB RA) of 87%.

For Cc1ccc(N)c(N)c1 [FLD075], the remaining activity at 2500 µM [2] was 90%.

In the case of CCS(=O)(=O)N1CCCC1c1ccccc1F (stereo not drawn) [Compound D399-0515], the remaining activity at 2300 µM (read-out: DdlB RA) is reported as 95%.

Compound N#Cc1ccccc1OCC(=O)O [Compound C790-0277] has a remaining activity at 2800 µM (read-out: DdlB RA) of 96%.

For CC(=O)c1ccc[nH]1 [FLD139], the remaining activity at 2500 µM [2] was 95%.

Work on O=C(O)CCc1cc(=O)[nH]o1 [Compound 8019-7777] yielded a remaining activity at 3200 µM (read-out: DdlB RA) of 91%.

c1cnc(-c2nc(C3CCNC3)no2)cn1 (stereo not drawn) [Compound S069-3207] was tested, and the remaining activity at 1700 µM (read-out: DdlB RA) was 95%.

With [C-]#[N+]CS(=O)(=O)c1ccc(C)cc1 [FLD035] the remaining activity at 2500 µM (read-out: DdlB RA) was 100%.

Compound O=c1c(-c2ccccc2)c(N2CCOCC2)c1=O [Compound E470-0468] has a remaining activity at 2100 µM (read-out: DdlB RA) of 91%.

OB(O)c1ccc(F)c(F)c1 [Compound 1222-0123] was tested, and the remaining activity at 3200 µM (read-out: DdlB RA) was 88%.

With Cc1cc(N)on1 [FLD036] the remaining activity at 2500 µM [2] was 97%.

CN(C)S(=O)(=O)Cc1ccccc1F [Compound Y300-2671] showed a remaining activity at 2500 µM [3] of 95%.

Work on CC(=O)c1ccc([N+](=O)[O-])cc1 [FLD015] yielded a remaining activity at 2500 µM [2] of 100%.

For Cc1cc(C)c(S(N)(=O)=O)c(Cl)n1 [Compound 8008-1931], the remaining activity at 2300 µM (read-out: DdlB RA) was 78%.

Compound CCS(=O)(=O)N1CCCc2cc(NC(C)=O)ccc21 [Compound G504-0524] has a remaining activity at 1800 µM [1] of 95%.

CC1CCCN(C(=O)c2nc[nH]c2C(=O)NC(C)C)C1 (stereo not drawn) [Compound D340-0776] showed a remaining activity at 2000 µM [1] of 96%.

For NS(=O)(=O)c1ccccc1 [Compound 0402-0167], the remaining activity at 3200 µM (read-out: DdlB RA) was 96%.

In the case of OC1CCCc2[nH]nc(-c3ccccc3)c21 (stereo not drawn) [Compound 8020-5457], the remaining activity at 2300 µM (read-out: DdlB RA) is reported as 96%.

Cc1nc(O)[nH]c(=O)c1S(=O)(=O)NC(C)(C)C [Compound D668-0207] showed a remaining activity at 1900 µM [1] of 85%.

O=C(Cn1cc2c(n1)CCCC2)Nc1ccc(F)cc1 [Compound C881-0402] gave a remaining activity at 2000 µM [1] of 79%.

Nc1cccc(O)c1 [FLD085] was tested, and the remaining activity at 2500 µM [2] was 100%.

Compound CCC1CCCCN1C(=O)C1CCCN1C(C)=O (stereo not drawn) [Compound Z601-4855] has a remaining activity at 2400 µM (read-out: DdlB RA) of 74%.

With CC(O)C1CCN(Cc2ccc(Br)o2)CC1 (stereo not drawn) [Compound T786-0030] the remaining activity at 2100 µM [1] was 94%.

COc1ccncc1 [FLD185] gave a remaining activity at 2500 µM [2] of 99%.

Nc1ccc2ncc(C(=O)O)c(O)c2c1 [Compound 8020-1815] was tested, and the remaining activity at 2500 µM [3] was 42%.

In the case of CCc1c(C)nn(-c2nnn[nH]2)c1O [Compound 8019-0165], the remaining activity at 2600 µM (read-out: DdlB RA) is reported as 76%.

For CCS(=O)(=O)N1CCCN(C(=O)C2CC2)CC1 [Compound Z603-0719], the remaining activity at 2300 µM (read-out: DdlB RA) was 98%.

For CNS(=O)(=O)c1ccc2c(c1)CCN2C(C)=O [Compound Y300-1529], the remaining activity at 2400 µM (read-out: DdlB RA) was 90%.

With COC(=O)c1cscc1N [FLD143] the remaining activity at 2500 µM [2] was 92%.

For CC(C)Oc1c(OC(C)C)c(=O)c1=O [FF20-3460], the remaining activity at 2500 µM [3] was 72%.

With Cc1cc(C)cc(NC(=O)N(C)CC2CCOC2)c1 (stereo not drawn) [Compound S213-1693] the remaining activity at 2100 µM [1] was 96%.

For CNC(=O)C1CCCN(S(=O)(=O)c2cccs2)C1 (stereo not drawn) [Compound D356-2306], the remaining activity at 1900 µM [1] was 86%.

For N#Cc1ccccc1S(N)(=O)=O [Compound 8016-9723], the remaining activity at 2700 µM (tested concentration 2.7 mM, read-out: DdlB RA) was 88%.

Compound Nc1ccc2nsnc2c1 [FLD147] has a remaining activity at 2500 µM [2] of 100%.

O=C1CS(=O)(=O)C2(CCNCC2)N1c1ccccc1 [Compound T140-0972] showed a remaining activity at 1900 µM [1] of 93%.

Compound N#Cc1c(N)cccc1F [FLD137] has a remaining activity at 2500 µM [2] of 98%.

Compound OCCc1ccccc1C(F)(F)F [FLD177] has a remaining activity at 2500 µM [2] of 100%.

Work on CC(C)NS(=O)(=O)c1ccc(F)cc1 [Compound Y030-0983] yielded a remaining activity at 2800 µM (read-out: DdlB RA) of 94%.

For CCc1c(C)nn2cnnc2c1O [Compound 8010-0007], the remaining activity at 3400 µM (residual activity of DdlB, fragment library screening, tested concentration 3.4 mM, read-out: DdlB RA) was 97%.

Cc1ccc(NS(=O)(=O)c2cnc(O)[nH]c2=O)c(C)c1 [Compound D668-0040] showed a remaining activity at 1700 µM (read-out: DdlB RA) of 91%.

Work on CCS(=O)(=O)Nc1cc(C(C)(C)C)on1 [Compound Y206-0720] yielded a remaining activity at 2600 µM (read-out: DdlB RA) of 91%.

Compound O=C(O)C1=CC(c2cc(F)cc(F)c2)n2nnnc2N1 (stereo not drawn) [Compound J043-0061] has a remaining activity at 2100 µM [1] of 101%.

O=C1C(O)CC2c3ccccc3CC3(CCCC3)N12 (stereo not drawn) [Compound 8014-1716] showed a remaining activity at 2300 µM (read-out: DdlB RA) of 85%.

COc1ccc2c(c1)C(=O)CCC2 [FLD008] gave a remaining activity at 2500 µM [2] of 100%.

Work on N[C@H](c1ccccc1)[C@@H](N)c1ccccc1 [FLD112] yielded a remaining activity at 2500 µM (read-out: DdlB RA) of 100%.
